5 compounds from patent US6552088B2, “Biphenyl derivatives” (Hoffmann-La Roche Inc., priority 1999, dated 2003) can be followed below.

The target of one series is T1, human NK-1 receptor (Homo sapiens, UniProt P25103).
T1 construct: expressed in transfected cells; host or cells: CHO cells infected using the Semliki virus expression system; membrane suspension
The experiment in a line: Affinity for the NK-1 receptor, [3H] substance P displacement binding assay. To be noted: human NK-1 receptors in CHO cells (Semliki virus expression system); [3H] substance P 0.6 nM; 60 min at room temperature; read-out: affinity to the NK-1 receptor, given as pKi (converted). The method, then:
The affinity of test compounds for the NK-1 receptor was evaluated at human NK-1 receptors in CHO cells infected with the human NK-1 receptor (using the Semliki virus expression system) and radiolabelled with [3H] substance P (final concentration 0.6 nM). Binding assays were performed in HEPES buffer (50 mM, pH 7.4) containing BSA (0.04%) leupeptin (8 μg/ml), MnCl2 (3 mM) and phosphoramidon (2 μM). Binding assays consisted of 250 μl of membrane suspension (1.25×10^5 cells/assay tube), […] of buffer of displacing agent and 125 μl of [3H] substance P. Displacement curves were determined with at least seven concentrations of the compound. The assay tubes were incubated for 60 min at room temperature after which time the tube contents were rapidly filtered under vacuum through GF/C filters presoaked for 60 min with PEI (0.3%) with 2×2 ml washed of HEPES buffer (50 mM, pH 7.4). The radioactivity retained on the filters was measured by scintillation counting. All assays were performed in triplicate in at least 2 separate experiments.

T1 sequence (P25103 whole entry): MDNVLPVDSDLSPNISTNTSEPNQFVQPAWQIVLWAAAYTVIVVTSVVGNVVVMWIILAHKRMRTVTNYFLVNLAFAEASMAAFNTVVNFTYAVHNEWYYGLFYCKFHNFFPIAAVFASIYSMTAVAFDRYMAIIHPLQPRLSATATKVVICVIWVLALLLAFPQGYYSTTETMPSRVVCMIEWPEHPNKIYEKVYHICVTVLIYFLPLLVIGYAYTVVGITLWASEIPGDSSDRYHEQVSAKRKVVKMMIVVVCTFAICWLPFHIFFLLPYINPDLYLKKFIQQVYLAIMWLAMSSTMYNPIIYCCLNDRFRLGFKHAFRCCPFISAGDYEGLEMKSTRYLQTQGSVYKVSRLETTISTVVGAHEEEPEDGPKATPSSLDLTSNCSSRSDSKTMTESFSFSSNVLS

Regarding `Cc1cc(CN(C)C(=O)c2ccccc2-c2ccccc2)cc(C(F)(F)F)c1` [Example 3, Biphenyl-2-carboxylic acid methyl-(3-methyl-5-trifluoromethyl-benzyl)-amide], the melting point was 126.7 to 127.1 °C.

With `CNc1ccc(-c2ccccc2C)c(N(C)C(=O)C(C)(C)c2cc(C(F)(F)F)cc(C(F)(F)F)c2)c1` [Example 20, 2-(3,5-Bis-trifluoromethyl-phenyl)-N-methyl-N-(2′-methyl-4-methylamino-biphenyl-2-yl)-isobutyramide], the Ki on human NK-1 receptor is 9.77 nM.

Regarding `Cc1ccccc1-c1ccc(N)cc1N(C)C(=O)C(C)(C)c1cc(C(F)(F)F)cc(C(F)(F)F)c1` [Example 18, N-(4-Amino-2′-methyl-biphenyl-2-yl)-2-(3,5-bis-trifluoromethyl-phenyl)-N-methyl-isobutyramide], the Ki at human NK-1 receptor is 5.25 nM.

The compound `CN(Cc1cc(Cl)cc(Cl)c1)C(=O)c1ccccc1-c1ccccc1` [Example 2, Biphenyl-2-carboxylic acid (3,5-dichloro-benzyl)-methyl-amide] had a melting point of 126 to 128 °C.

As for `Cc1ccccc1-c1cc(N2CCN(C)CC2)ccc1C(=O)N(C)Cc1cc(C(F)(F)F)cc(C(F)(F)F)c1` [Example 27, 2′-Methyl-5-(4-methyl-piperazin-1-yl)-biphenyl-2-carboxylic acid (3,5-bis-trifluoromethyl-benzyl)-methyl-amide], the Ki on human NK-1 receptor is 1.45 nM.
